Source: ChEMBL document CHEMBL1149774, “Synthesis of N-(5,7-diamino-3-phenyl-quinoxalin-2-yl)-3,4,5-substituted anilines and N-[4[(5,7-diamino-3-phenylquinoxalin-2-yl)amino]benzoyl]-l-glutamic acid diethyl ester: evaluation of in vitro anti-cancer and anti-folate activities” (Eur J Med Chem, 2008)
pKi: −log10 of the molar value.

Columns and labels:
HCT-15 = test: Growth inhibition of human HCT15 cells after 48 hrs by SRB staining method; format: functional; settings: HCT-15, 48 h; for TGI: read-out: pTGI (converted)
SW-620 = test: Growth inhibition of human SW620 cells after 48 hrs by SRB staining method; format: functional; settings: SW-620, 48 h; for CC50: read-out: pLC50 (the source's name) (converted); for TGI: read-out: pTGI (converted)
OVCAR-3 = test: Growth inhibition of human OVCAR-3 cells after 48 hrs by SRB staining method; format: functional; settings: OVCAR-3, 48 h; for TGI: read-out: pTGI (converted)
OVCAR-4 = test: Growth inhibition of human OVCAR4 cells after 48 hrs by SRB staining method; format: functional; settings: OVCAR-4, 48 h; for TGI: read-out: pTGI (converted)
HOP-92 = test: Growth inhibition of human HOP92 cells after 48 hrs by SRB staining method; format: functional; settings: HOP-92, 48 h; for TGI: read-out: pTGI (converted)
BT-549 = test: Growth inhibition of human BT549 cells after 48 hrs by SRB staining method; format: functional; settings: BT-549, 48 h; for CC50: read-out: pLC50 (the source's name) (converted); for TGI: read-out: pTGI (converted)
RPMI-8226 = test: Growth inhibition of human RPMI8226 cells after 48 hrs by SRB staining method; format: functional; settings: RPMI-8226, 48 h; for CC50: read-out: pLC50 (the source's name) (converted); for TGI: read-out: pTGI (converted)
NCI-H522 = test: Growth inhibition of human NCI-H522 cells after 48 hrs by SRB staining method; format: functional; settings: NCI-H522, 48 h; for TGI: read-out: pTGI (converted)
CCRF-CEM = test: Growth inhibition of human CCRF-CEM cells after 48 hrs by SRB staining method; format: functional; settings: for CC50: read-out: pLC50 (the source's name) (converted); for TGI: read-out: pTGI (converted)
HT-29 = test: Growth inhibition of human HT29 cells after 48 hrs by SRB staining method; format: functional; settings: HT-29, 48 h; for TGI: read-out: pTGI (converted)
SNB-75 = test: Growth inhibition of human SNB75 cells after 48 hrs by SRB staining method; format: functional; settings: SNB-75, 48 h
HL-60 = test: Growth inhibition of human HL60 cells after 48 hrs by SRB staining method; format: functional; settings: HL-60, 48 h; for CC50: read-out: pLC50 (the source's name) (converted); for TGI: read-out: pTGI (converted)
NCI-H322M = test: Growth inhibition of human NCI-H322M cells after 48 hrs by SRB staining method; format: functional
Malme-3M = test: Growth inhibition of human MALME-3M cells after 48 hrs by SRB staining method; format: functional; settings: for TGI: read-out: pTGI (converted)
SN12C = test: Growth inhibition of human SN12C cells after 48 hrs by SRB staining method; format: functional; settings: for CC50: read-out: pLC50 (the source's name) (converted); for TGI: read-out: pTGI (converted)
HCC 2998 = test: Growth inhibition of human HCC2998 cells after 48 hrs by SRB staining method; format: functional; settings: HCC 2998, 48 h
LOX IMVI = test: Growth inhibition of human LOX IMVI cells after 48 hrs by SRB staining method; format: functional; settings: for TGI: read-out: pTGI (converted)
UO-31 = test: Growth inhibition of human UO31 cells after 48 hrs by SRB staining method; format: functional; settings: UO-31, 48 h; for CC50: read-out: pLC50 (the source's name) (converted); for TGI: read-out: pTGI (converted)
HOP-62 = test: Growth inhibition of human HOP62 cells after 48 hrs by SRB staining method; format: functional; settings: HOP-62, 48 h; for TGI: read-out: pTGI (converted)
COLO 205 = test: Growth inhibition of human COLO205 cells after 48 hrs by SRB staining method; format: functional; settings: COLO 205, 48 h; for TGI: read-out: pTGI (converted)
Thymidylate synthase = Thymidylate synthase (Homo sapiens, UniProt P04818)
Description: Inhibition of human thymidylate synthase

NCI-H226 = test: Growth inhibition of human NCI-H226 cells after 48 hrs by SRB staining method; format: functional; settings: NCI-H226, 48 h
SK-MEL-2 = test: Growth inhibition of human SK-MEL-2 cells after 48 hrs by SRB staining method; format: functional; settings: SK-MEL-2, 48 h; for TGI: read-out: pTGI (converted)
Dihydrofolate reductase = biological target: T1, Dihydrofolate reductase (Homo sapiens, UniProt P00374); test: Inhibition of human dihydrofolate reductase
T1 sequence (P00374 whole entry): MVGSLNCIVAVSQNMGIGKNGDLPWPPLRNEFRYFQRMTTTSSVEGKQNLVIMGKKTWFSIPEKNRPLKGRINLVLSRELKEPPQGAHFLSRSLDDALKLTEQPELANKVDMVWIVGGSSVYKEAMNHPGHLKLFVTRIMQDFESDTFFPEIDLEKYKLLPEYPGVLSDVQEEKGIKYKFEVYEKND

[1] = Growth inhibition of human HS 578T cells after 48 hrs by SRB staining method; format: functional; settings: for CC50: read-out: pLC50 (the source's name) (converted); for TGI: read-out: pTGI (converted)
MDA-N = test: Growth inhibition of human MDA-N cells after 48 hrs by SRB staining method; format: functional; settings: for CC50: read-out: pLC50 (the source's name) (converted); for TGI: read-out: pTGI (converted)
OVCAR-5 = test: Growth inhibition of human OVCAR5 cells after 48 hrs by SRB staining method; format: functional; settings: OVCAR-5, 48 h; for TGI: read-out: pTGI (converted)
MOLT-4 = test: Growth inhibition of human MOLT4 cells after 48 hrs by SRB staining method; format: functional; settings: MOLT-4, 48 h
SF-539 = test: Growth inhibition of human SF539 cells after 48 hrs by SRB staining method; format: functional; settings: SF-539, 48 h

Thymidylate synthase, sequence (P04818 whole entry): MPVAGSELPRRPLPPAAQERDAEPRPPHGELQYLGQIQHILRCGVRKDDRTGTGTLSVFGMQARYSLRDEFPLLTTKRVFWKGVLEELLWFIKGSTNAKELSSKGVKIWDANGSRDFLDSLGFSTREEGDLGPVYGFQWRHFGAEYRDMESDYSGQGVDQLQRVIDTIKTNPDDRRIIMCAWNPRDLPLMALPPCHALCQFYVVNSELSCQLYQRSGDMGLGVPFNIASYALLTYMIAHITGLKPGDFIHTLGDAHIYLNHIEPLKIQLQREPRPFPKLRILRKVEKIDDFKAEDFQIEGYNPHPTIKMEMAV

COc1ccc(Nc2nc3cc(N)cc(N)c3nc2-c2ccccc2)cc1
GI50 (HCT-15): 15.1 µM
LC50 (HCT-15): > 100 µM
TGI (HCT-15): 44.7 µM
GI50 (SW-620): 22.4 µM
CC50 (SW-620): 60.3 µM
TGI (SW-620): 37.2 µM
GI50 (OVCAR-3): 17.4 µM
LC50 (OVCAR-3): 79.4 µM
TGI (OVCAR-3): 37.2 µM
GI50 (OVCAR-4): 10.5 µM
LC50 (OVCAR-4): 46.8 µM
TGI (OVCAR-4): 21.9 µM
GI50 (HOP-92): 20 µM
LC50 (HOP-92): > 100 µM
TGI (HOP-92): 52.5 µM
GI50 (BT-549): 13.5 µM
CC50 (BT-549): 75.9 µM
TGI (BT-549): 31.6 µM
GI50 (RPMI-8226): 19.1 µM
CC50 (RPMI-8226): > 100 µM
TGI (RPMI-8226): > 100 µM
GI50 (NCI-H522): 14.8 µM
LC50 (NCI-H522): 52.5 µM
TGI (NCI-H522): 28.2 µM
GI50 (CCRF-CEM): 12 µM
CC50 (CCRF-CEM): > 100 µM
TGI (CCRF-CEM): > 100 µM
GI50 (HT-29): 24 µM
LC50 (HT-29): 89.1 µM
TGI (HT-29): 42.7 µM
GI50 (SNB-75): 14.5 µM
LC50 (SNB-75): > 100 µM
TGI (SNB-75; read-out: pTGI (converted)): 42.7 µM
GI50 (HL-60): 34.7 µM
CC50 (HL-60): > 100 µM
TGI (HL-60): > 100 µM
GI50 (NCI-H322M): 23.4 µM
LC50 (NCI-H322M): > 100 µM
TGI (NCI-H322M; read-out: pTGI (converted)): 83.2 µM
GI50 (Malme-3M): 15.1 µM
LC50 (Malme-3M): 53.7 µM
TGI (Malme-3M): 28.2 µM
GI50 (SN12C): 20.4 µM
CC50 (SN12C): > 100 µM
TGI (SN12C): 57.5 µM
GI50 (HCC 2998): 28.2 µM
LC50 (HCC 2998): > 100 µM
TGI (HCC 2998; read-out: pTGI (converted)): > 100 µM
GI50 (LOX IMVI): 16.2 µM
LC50 (LOX IMVI): 55 µM
TGI (LOX IMVI): 29.5 µM
GI50 (UO-31): 16.6 µM
CC50 (UO-31): 70.8 µM
TGI (UO-31): 33.9 µM
GI50 (HOP-62): 27.5 µM
LC50 (HOP-62): > 100 µM
TGI (HOP-62): > 100 µM
GI50 (COLO 205): 15.8 µM
LC50 (COLO 205): 53.7 µM
TGI (COLO 205): 29.5 µM
pKi (Thymidylate synthase): 5.22
GI50 (NCI-H226): 24 µM
LC50 (NCI-H226): > 100 µM
TGI (NCI-H226; read-out: pTGI (converted)): 97.7 µM
GI50 (SK-MEL-2): 15.5 µM
LC50 (SK-MEL-2): 63.1 µM
TGI (SK-MEL-2): 31.6 µM
pKi (Dihydrofolate reductase): 5.74
GI50 [1]: 14.5 µM
CC50 [1]: > 100 µM
TGI [1]: 46.8 µM
GI50 (MDA-N): 21.4 µM
CC50 (MDA-N): 60.3 µM
TGI (MDA-N): 36.3 µM
GI50 (OVCAR-5): 21.4 µM
LC50 (OVCAR-5): > 100 µM
TGI (OVCAR-5): 53.7 µM

COc1cc(Nc2nc3cc(N)cc(N)c3nc2-c2ccccc2)cc(OC)c1OC
GI50 (MOLT-4): 2.57 µM
CC50 (MOLT-4; read-out: pLC50 (the source's name) (converted)): 56.2 µM
TGI (MOLT-4; read-out: pTGI (converted)): 18.2 µM
GI50 (HCT-15): 15.1 µM
LC50 (HCT-15): > 100 µM
TGI (HCT-15): 45.7 µM
GI50 (SW-620): 24 µM
CC50 (SW-620): > 100 µM
TGI (SW-620): > 100 µM
GI50 (OVCAR-3): 14.1 µM
LC50 (OVCAR-3): 97.7 µM
TGI (OVCAR-3): 37.2 µM
GI50 (OVCAR-4): 0.0316 µM
LC50 (OVCAR-4): 25.7 µM
TGI (OVCAR-4): 0.891 µM
GI50 (HOP-92): 2.75 µM
LC50 (HOP-92): 91.2 µM
TGI (HOP-92): 20.9 µM
GI50 (BT-549): 17 µM
CC50 (BT-549): 67.6 µM
TGI (BT-549): 17 µM
GI50 (RPMI-8226): 12.3 µM
CC50 (RPMI-8226): 85.1 µM
TGI (RPMI-8226): 32.4 µM
GI50 (NCI-H522): 18.2 µM
LC50 (NCI-H522): > 100 µM
TGI (NCI-H522): 53.7 µM
GI50 (CCRF-CEM): 4.37 µM
CC50 (CCRF-CEM): > 100 µM
TGI (CCRF-CEM): 41.7 µM
GI50 (HT-29): 33.1 µM
LC50 (HT-29): 74.1 µM
TGI (HT-29): 34.7 µM
GI50 (HL-60): 6.61 µM
CC50 (HL-60): 64.6 µM
TGI (HL-60): 23.4 µM
LC50 (NCI-H322M): > 100 µM
GI50 (Malme-3M): 12.9 µM
LC50 (Malme-3M): 61.7 µM
TGI (Malme-3M): 28.2 µM
GI50 (SN12C): 20.4 µM
CC50 (SN12C): > 100 µM
TGI (SN12C): 83.2 µM
GI50 (LOX IMVI): 18.6 µM
LC50 (LOX IMVI): > 100 µM
TGI (LOX IMVI): 49 µM
GI50 (UO-31): 15.1 µM
CC50 (UO-31): > 100 µM
TGI (UO-31): 91.2 µM
GI50 (HOP-62): 16.2 µM
LC50 (HOP-62): 72.4 µM
TGI (HOP-62): 34.7 µM
GI50 (COLO 205): 14.1 µM
LC50 (COLO 205): 52.5 µM
TGI (COLO 205): 26.9 µM
pKi (Thymidylate synthase): 4.29
GI50 (SK-MEL-2): 15.8 µM
LC50 (SK-MEL-2): 77.6 µM
TGI (SK-MEL-2): 35.5 µM
pKi (Dihydrofolate reductase): 7.00
GI50 [1]: 15.1 µM
CC50 [1]: > 100 µM
TGI [1]: 77.6 µM
GI50 (MDA-N): 10.5 µM
CC50 (MDA-N): 93.3 µM
TGI (MDA-N): 31.6 µM
GI50 (OVCAR-5): 21.4 µM
LC50 (OVCAR-5): > 100 µM
TGI (OVCAR-5): 46.8 µM
GI50 (SF-539): 14.8 µM
LC50 (SF-539): 56.2 µM
TGI (SF-539; read-out: pTGI (converted)): 28.8 µM
